SMILES strings stand for the structures.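 Results reflect a 48-hour exposure of cells in 96-well plates to compound at five concentrations. TGI: total growth inhibition.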

Among the test systems are SF-268 CNS; CCRF-CEM leukemia; NCI-H522 lung; MOLT-4 leukemia.
Holding throughout (assay): DTP human tumour cell line panel, 48 h

One may read the TGI as the concentration at which net growth stops. Regarding `Cc1ccc(C2N=C(N)NC3=C2CCOc2c3ccc3ccccc23)cc1` (stereo not drawn), the TGI was above 75.6 µM in the test with SF-268 CNS, 3.71 µM in the test with CCRF-CEM leukemia, above 100 µM with NCI-H522 lung and above 74.8 µM in the test with MOLT-4 leukemia.
For `CCC/C(Cl)=N\OC(=O)Nc1cccc(C(F)(F)F)c1`, the TGI with SF-268 CNS was 67.8 µM; in the test on CCRF-CEM leukemia, 5.67 µM; in the test on NCI-H522 lung it was 3.42 µM; in the test on MOLT-4 leukemia it was 13.6 µM.
In the case of `Cc1[nH]n(C(=N)N)c(=O)c1CCO`, the TGI with SF-268 CNS, with CCRF-CEM leukemia and in the test with NCI-H522 lung was above 100 µM in each case.
`C=CCc1cc(C=C(C#N)C#N)cc(OC)c1O`: the TGI in the test with CCRF-CEM leukemia, in the test with NCI-H522 lung and in the test with MOLT-4 leukemia was above 100 µM in each case.
In the case of `Cc1nc2c(cc1C(=O)N/N=C/c1ccc([N+](=O)[O-])cc1)c(=O)n(C)c(=O)n2C`, the TGI in the test with SF-268 CNS, with CCRF-CEM leukemia and in the test on MOLT-4 leukemia was above 100 µM throughout.
Turning to `O=C(O)CCNC(=O)c1cc(N(CCBr)CCBr)c([N+](=O)[O-])cc1[N+](=O)[O-]`, the TGI with SF-268 CNS, in the test on CCRF-CEM leukemia, in the test on NCI-H522 lung and in the test with MOLT-4 leukemia was above 100 µM throughout.
As for `Cc1cc(C)nc(SCC(=O)OC2CC(C)CCC2C(C)C)n1` (stereo not drawn), the TGI is above 100 µM with SF-268 CNS, 42.5 µM in the test on CCRF-CEM leukemia, 46 µM with NCI-H522 lung and 38.6 µM in the test with MOLT-4 leukemia.
For `CC(C)COC(=O)OC(=O)c1ccc(N(C)Cc2cnc3nc(N)nc(N)c3n2)cc1`, the TGI in the test on SF-268 CNS, in the test with CCRF-CEM leukemia, in the test on NCI-H522 lung and in the test on MOLT-4 leukemia was above 100 µM throughout.
As to `CC(=O)Nc1ccc(-c2nc3ccccc3s2)cc1C`, the TGI with SF-268 CNS, with CCRF-CEM leukemia and in the test with MOLT-4 leukemia was above 100 µM each time.
With `CCN1C(=O)/C(=C2\SC(c3ccccc3)(c3ccccc3)c3ccccc32)SC1=S`, the TGI in the test with SF-268 CNS, in the test with CCRF-CEM leukemia, in the test with NCI-H522 lung and in the test with MOLT-4 leukemia was above 100 µM in each case.
Consider `CC1(C)OCC(C2OC(OC(=O)c3ccc([N+](=O)[O-])cc3)C3OC(C)(C)OC23)O1` (stereo not drawn), for which the TGI in the test with SF-268 CNS, with CCRF-CEM leukemia, with NCI-H522 lung and in the test with MOLT-4 leukemia was above 100 µM in each case.
Turning to `C[n+]1c2ccccc2n2c3ccccc3c(NCCc3ccccn3)c(C#N)c21`, the TGI with SF-268 CNS was above 22.4 µM; in the test with CCRF-CEM leukemia, 9.11 µM; with NCI-H522 lung, 3.95 µM; in the test with MOLT-4 leukemia, above 22.5 µM.
The like results for `O=c1c(C2=NCCC2)c(-c2ccc[nH]2)[nH]n1-c1ccccc1` were, in that order, above 100 µM, above 100 µM, above 100 µM and above 100 µM.
Turning to `c1cc2nnc1SCCCSc1ccc(nn1)SCCCSc1ccc(nn1)SCCCS2`, the TGI with SF-268 CNS, in the test on CCRF-CEM leukemia, with NCI-H522 lung and with MOLT-4 leukemia was above 100 µM in each case.
Consider `C[N+](C)(C)/N=C/c1ccc(O)c(O)c1`, for which the TGI with SF-268 CNS, with CCRF-CEM leukemia, in the test with NCI-H522 lung and with MOLT-4 leukemia was above 100 µM in each case.
Take `O=C(OC[C@H]1C[C@H]2C(=O)CCC[C@H]2O1)c1ccccc1`: the TGI in the test with SF-268 CNS, in the test with CCRF-CEM leukemia, in the test on NCI-H522 lung and in the test with MOLT-4 leukemia was above 100 µM each time.
For the molecule `COc1cc(/C=C/c2nc(N)nnc2C)cc(OC)c1OC`, the TGI in the test on SF-268 CNS is above 54.4 µM; in the test on CCRF-CEM leukemia, 55.4 µM; in the test with NCI-H522 lung, 21.7 µM; with MOLT-4 leukemia, above 90.7 µM.
Turning to `COc1ccc(-c2nnc3n(Cc4ccccc4)c4ccccc4n3c2=O)cc1`, the TGI in the test with SF-268 CNS is above 100 µM; in the test with CCRF-CEM leukemia it was above 100 µM; in the test with NCI-H522 lung, 80.7 µM; in the test with MOLT-4 leukemia, above 100 µM.
In the case of `CSc1cc(Br)ccc1-n1c(C(=O)c2ccccc2)c(SC)n(-c2ccccc2)c1=O`, the TGI in the test with SF-268 CNS, in the test with NCI-H522 lung and in the test on MOLT-4 leukemia was above 100 µM throughout.
For the molecule `COc1ccc(/C=C/C(=N/NC(=O)N/N=C(/C=C/c2ccc(OC)cc2)C(C)(C)CN2CCCCC2)C(C)(C)CN2CCCCC2)cc1`, the TGI with CCRF-CEM leukemia stood at 3.39 µM; in the test on NCI-H522 lung, 3.59 µM; in the test on MOLT-4 leukemia, 4.18 µM.
For `COc1cccc2c3ccccc3c3nc[nH]c3c12`, the TGI in the test on SF-268 CNS is above 100 µM; in the test on CCRF-CEM leukemia it was 52.5 µM; in the test with NCI-H522 lung it was above 70.1 µM; in the test on MOLT-4 leukemia, 28.4 µM.
On to `CC(C)(C)CNC(=O)NCn1cc(-c2ccccc2)nn1`, for which the TGI with SF-268 CNS, in the test with CCRF-CEM leukemia, in the test with NCI-H522 lung and in the test on MOLT-4 leukemia was above 100 µM throughout.
`COc1cc2c(cc1OC)CN1CCCc3cc(OC)c(OC)cc3C1C2` (stereo not drawn): the TGI with SF-268 CNS, in the test with CCRF-CEM leukemia, with NCI-H522 lung and in the test on MOLT-4 leukemia was above 100 µM throughout.
As for `NC(=O)C(=CNC(=S)Nc1ccc(Cl)c(Cl)c1)C(N)=O`, the TGI with SF-268 CNS is above 100 µM; in the test on CCRF-CEM leukemia, above 100 µM; in the test on NCI-H522 lung, 72.3 µM; in the test with MOLT-4 leukemia, above 100 µM.
Turning to `O=C(NNCC(F)(F)F)c1ccncc1`, the TGI in the test on SF-268 CNS, in the test with CCRF-CEM leukemia, in the test with NCI-H522 lung and with MOLT-4 leukemia was above 100 µM in each case.
In the case of `CCCCCCCNC(P(=O)(O)O)P(=O)(O)O`, the TGI in the test on SF-268 CNS, with CCRF-CEM leukemia, in the test on NCI-H522 lung and in the test on MOLT-4 leukemia was above 100 µM in each case.

The values are drawn from PubChem BioAssay (NCI).
